Test results taken from ChEMBL document CHEMBL1201862, “PubChem BioAssay data set” (2004).
Calls of active or inactive are those of the source.

Experiments:
[1] = growth suppression of PTEN-null colon cells, dose response, cell-based, HCT116 PTEN knockout (AID 1047); assay type: functional;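 also: HCT116 colon tumor cells with PTEN knocked out; cells exposed to compound for 60 hours before readout; potency for loss of cell viability measured by luminescence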
Vero = experiment: cells; assay type: functional; conditions: Chlorocebus sabaeus
[2] = growth suppression of beta-catenin-knockout colon cells, dose response, cell-based, HCT116, human colon tumor (AID 1045); assay type: functional;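 also: HCT116 colon tumor cells with beta catenin knocked out; cells exposed to compound for 60 hours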
H9c2 = experiment: cells; assay type: functional, cell-based; conditions: Rattus norvegicus, H9c2, Myocardium;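 also: confirmatory concentration-response retest of ultra-high-throughput screening hits for modulation of myocardial damage; cell death induced by hydrogen peroxide oxidative stress; compound pretreatment for 60 min then peroxide exposure for 2 h; potency is for protecting the cells against peroxide damage rather than for killing them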
[3] = molecular target: T1, Voltage-gated N-type calcium channel alpha-1B subunit/Amyloid beta A4 precursor protein-binding family A member 1 (Homo sapiens, UniProt Q00975+Q02410); assay type: protein assay
T1 sequence (Q00975 whole entry): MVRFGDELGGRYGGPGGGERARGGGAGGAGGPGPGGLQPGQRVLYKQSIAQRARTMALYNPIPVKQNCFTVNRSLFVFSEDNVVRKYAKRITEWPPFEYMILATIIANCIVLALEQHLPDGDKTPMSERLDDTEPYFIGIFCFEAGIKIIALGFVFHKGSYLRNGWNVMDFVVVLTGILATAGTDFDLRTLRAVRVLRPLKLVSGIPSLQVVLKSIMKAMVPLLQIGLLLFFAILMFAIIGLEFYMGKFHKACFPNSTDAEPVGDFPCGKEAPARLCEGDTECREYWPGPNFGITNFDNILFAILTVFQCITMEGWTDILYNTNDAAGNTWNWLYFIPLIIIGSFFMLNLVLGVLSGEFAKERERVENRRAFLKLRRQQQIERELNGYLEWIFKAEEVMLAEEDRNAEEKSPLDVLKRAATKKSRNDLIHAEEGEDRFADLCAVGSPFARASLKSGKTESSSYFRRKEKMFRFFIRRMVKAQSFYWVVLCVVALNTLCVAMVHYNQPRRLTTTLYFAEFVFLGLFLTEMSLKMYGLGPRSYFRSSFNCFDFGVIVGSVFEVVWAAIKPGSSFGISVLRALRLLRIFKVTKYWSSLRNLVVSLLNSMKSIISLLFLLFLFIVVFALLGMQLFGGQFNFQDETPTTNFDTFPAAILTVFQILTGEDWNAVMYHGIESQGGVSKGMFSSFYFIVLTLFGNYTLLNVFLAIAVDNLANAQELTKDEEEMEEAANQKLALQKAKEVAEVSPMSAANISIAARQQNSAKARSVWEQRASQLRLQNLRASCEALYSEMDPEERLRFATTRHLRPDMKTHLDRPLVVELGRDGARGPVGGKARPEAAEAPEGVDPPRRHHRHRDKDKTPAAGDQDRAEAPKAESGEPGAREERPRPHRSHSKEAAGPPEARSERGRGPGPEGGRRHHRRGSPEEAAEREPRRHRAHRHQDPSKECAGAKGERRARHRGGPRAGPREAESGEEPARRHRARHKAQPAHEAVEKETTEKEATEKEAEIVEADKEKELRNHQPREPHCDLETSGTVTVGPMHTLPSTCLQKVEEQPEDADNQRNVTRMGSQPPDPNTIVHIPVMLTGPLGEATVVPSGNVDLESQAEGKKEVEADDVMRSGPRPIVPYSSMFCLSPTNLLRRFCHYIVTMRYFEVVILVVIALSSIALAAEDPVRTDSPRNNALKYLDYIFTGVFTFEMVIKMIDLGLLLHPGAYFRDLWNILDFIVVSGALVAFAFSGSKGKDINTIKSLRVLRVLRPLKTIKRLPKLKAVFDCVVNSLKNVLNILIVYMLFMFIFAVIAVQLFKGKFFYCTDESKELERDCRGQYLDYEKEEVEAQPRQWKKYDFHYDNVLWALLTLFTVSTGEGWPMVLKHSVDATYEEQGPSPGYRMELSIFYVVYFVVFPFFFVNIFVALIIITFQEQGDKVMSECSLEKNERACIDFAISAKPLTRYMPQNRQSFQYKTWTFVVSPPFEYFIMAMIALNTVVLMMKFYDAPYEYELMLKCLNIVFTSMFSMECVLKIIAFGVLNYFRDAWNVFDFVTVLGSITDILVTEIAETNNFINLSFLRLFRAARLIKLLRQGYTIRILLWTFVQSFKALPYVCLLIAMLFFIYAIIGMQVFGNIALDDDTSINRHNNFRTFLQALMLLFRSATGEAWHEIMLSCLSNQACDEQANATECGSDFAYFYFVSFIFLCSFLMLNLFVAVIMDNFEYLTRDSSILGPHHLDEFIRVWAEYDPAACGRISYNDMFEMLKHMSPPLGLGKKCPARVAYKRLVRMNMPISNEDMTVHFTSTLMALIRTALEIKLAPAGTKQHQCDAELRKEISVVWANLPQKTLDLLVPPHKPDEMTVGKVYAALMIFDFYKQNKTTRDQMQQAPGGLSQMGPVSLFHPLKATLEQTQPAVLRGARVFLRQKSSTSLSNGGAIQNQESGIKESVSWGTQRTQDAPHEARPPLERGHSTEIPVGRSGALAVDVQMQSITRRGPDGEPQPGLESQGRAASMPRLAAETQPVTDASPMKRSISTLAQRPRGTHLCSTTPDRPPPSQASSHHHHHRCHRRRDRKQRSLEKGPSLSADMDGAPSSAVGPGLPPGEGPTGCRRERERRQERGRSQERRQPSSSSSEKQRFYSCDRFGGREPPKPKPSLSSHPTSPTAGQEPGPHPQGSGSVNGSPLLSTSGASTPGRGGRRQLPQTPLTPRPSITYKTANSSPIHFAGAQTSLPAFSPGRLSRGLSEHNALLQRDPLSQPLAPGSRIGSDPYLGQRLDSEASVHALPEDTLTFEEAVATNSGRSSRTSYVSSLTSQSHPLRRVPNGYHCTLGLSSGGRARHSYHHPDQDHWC
T1 sequence (Q02410 whole entry): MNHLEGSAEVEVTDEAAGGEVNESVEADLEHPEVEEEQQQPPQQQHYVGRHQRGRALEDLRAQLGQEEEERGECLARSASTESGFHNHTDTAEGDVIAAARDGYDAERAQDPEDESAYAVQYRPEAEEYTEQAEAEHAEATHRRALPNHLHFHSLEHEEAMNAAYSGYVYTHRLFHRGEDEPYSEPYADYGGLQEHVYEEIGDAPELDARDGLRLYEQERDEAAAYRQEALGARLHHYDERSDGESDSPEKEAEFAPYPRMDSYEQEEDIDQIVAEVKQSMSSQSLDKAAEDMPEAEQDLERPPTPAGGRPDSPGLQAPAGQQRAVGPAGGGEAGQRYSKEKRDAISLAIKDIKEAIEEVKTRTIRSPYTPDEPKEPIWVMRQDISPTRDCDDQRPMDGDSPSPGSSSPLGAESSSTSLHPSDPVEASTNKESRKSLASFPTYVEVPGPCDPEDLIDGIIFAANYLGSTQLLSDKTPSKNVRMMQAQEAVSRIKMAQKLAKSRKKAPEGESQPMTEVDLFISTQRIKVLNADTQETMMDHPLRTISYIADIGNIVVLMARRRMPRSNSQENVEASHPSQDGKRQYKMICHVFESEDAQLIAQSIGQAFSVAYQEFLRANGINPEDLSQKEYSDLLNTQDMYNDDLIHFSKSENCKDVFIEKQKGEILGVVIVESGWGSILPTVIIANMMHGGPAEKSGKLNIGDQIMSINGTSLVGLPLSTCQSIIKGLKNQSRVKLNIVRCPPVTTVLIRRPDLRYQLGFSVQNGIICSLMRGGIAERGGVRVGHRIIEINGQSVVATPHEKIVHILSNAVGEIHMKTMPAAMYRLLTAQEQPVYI

Large T antigen = Large T antigen (Simian virus 40, UniProt P03070); assay type: functional, Betapolyomavirus macacae;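 also: Confirmatory-stage PubChem screen for compounds that inhibit SV40 T antigen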
Chain of Large T antigen (P03070 whole entry): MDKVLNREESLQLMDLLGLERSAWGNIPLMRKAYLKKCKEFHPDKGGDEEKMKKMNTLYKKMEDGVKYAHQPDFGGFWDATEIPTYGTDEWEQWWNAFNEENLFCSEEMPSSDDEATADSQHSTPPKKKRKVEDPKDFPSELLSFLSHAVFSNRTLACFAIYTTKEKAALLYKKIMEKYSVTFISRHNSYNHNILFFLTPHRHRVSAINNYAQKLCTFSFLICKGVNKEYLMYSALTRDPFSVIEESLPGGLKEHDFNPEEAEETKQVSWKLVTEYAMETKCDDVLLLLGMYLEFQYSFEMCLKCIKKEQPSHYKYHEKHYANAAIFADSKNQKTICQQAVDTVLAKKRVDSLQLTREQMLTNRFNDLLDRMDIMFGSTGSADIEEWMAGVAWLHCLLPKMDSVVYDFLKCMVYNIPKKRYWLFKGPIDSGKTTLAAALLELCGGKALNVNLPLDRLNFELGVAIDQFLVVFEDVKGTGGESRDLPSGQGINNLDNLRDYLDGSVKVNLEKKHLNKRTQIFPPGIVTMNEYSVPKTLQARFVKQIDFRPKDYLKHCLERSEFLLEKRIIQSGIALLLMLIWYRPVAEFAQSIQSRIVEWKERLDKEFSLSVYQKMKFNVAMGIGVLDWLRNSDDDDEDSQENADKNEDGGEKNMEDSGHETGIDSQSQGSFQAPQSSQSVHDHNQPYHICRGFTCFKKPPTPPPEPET

[4] = molecular target: T1, Voltage-gated N-type calcium channel alpha-1B subunit/Amyloid beta A4 precursor protein-binding family A member 1; assay type: protein assay; remark: listed apart in the source
[5] = molecular target: T2, Ubiquitin-conjugating enzyme E2 N (Homo sapiens, UniProt P61088); assay type: functional;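 also: Dose-response confirmation in a TR-FRET assay detecting UBC13-driven polyubiquitin chain formation, inhibition measured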
T2 sequence (P61088 whole entry): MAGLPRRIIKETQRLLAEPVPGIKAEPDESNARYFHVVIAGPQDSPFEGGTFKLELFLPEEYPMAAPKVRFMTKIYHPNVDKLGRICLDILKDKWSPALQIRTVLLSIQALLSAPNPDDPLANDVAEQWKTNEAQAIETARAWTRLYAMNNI

[6] = molecular target: T3, Short transient receptor potential channel 4 (Mus musculus, UniProt Q9QUQ5); experiment: mouse TRPC4 channel activators, dose response, cell-based, HEK293 TRPC4/mu-opioid, Fluo-4 calcium (AID 434937); assay type: functional
T3 sequence (Q9QUQ5 whole entry): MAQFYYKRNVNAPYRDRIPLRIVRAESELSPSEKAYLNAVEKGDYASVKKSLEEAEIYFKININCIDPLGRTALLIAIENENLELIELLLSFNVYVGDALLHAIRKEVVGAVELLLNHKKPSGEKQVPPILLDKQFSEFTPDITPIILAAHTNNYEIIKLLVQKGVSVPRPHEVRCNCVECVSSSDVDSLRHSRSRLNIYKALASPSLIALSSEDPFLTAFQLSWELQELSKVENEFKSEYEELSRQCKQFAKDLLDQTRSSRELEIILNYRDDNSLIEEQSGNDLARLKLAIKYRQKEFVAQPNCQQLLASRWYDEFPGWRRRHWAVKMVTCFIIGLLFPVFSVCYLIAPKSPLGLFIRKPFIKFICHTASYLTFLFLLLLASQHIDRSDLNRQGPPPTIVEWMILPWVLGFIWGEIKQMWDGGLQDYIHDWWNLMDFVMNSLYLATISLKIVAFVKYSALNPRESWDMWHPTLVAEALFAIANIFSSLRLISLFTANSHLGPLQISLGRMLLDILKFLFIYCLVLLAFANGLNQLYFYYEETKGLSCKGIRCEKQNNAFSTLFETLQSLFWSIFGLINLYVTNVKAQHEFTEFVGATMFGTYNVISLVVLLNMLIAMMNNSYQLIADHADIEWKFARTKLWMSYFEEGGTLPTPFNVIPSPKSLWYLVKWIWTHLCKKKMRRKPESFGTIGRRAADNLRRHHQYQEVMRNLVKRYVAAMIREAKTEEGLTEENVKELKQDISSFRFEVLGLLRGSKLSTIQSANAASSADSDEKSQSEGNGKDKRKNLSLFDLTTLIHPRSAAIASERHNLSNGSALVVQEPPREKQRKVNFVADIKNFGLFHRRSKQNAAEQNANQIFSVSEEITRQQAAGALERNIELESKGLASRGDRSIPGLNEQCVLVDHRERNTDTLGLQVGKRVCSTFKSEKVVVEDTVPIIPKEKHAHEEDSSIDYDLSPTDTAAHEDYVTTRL

[7] = molecular target: T4, Replicative DNA helicase DnaB (Mycobacterium tuberculosis, UniProt P9WMR3); experiment: DnaB intein splicing inhibitors, dose response, biochemical, cell-free fluorescence (AID 449749); assay type: functional
T4 sequence (P9WMR3 whole entry): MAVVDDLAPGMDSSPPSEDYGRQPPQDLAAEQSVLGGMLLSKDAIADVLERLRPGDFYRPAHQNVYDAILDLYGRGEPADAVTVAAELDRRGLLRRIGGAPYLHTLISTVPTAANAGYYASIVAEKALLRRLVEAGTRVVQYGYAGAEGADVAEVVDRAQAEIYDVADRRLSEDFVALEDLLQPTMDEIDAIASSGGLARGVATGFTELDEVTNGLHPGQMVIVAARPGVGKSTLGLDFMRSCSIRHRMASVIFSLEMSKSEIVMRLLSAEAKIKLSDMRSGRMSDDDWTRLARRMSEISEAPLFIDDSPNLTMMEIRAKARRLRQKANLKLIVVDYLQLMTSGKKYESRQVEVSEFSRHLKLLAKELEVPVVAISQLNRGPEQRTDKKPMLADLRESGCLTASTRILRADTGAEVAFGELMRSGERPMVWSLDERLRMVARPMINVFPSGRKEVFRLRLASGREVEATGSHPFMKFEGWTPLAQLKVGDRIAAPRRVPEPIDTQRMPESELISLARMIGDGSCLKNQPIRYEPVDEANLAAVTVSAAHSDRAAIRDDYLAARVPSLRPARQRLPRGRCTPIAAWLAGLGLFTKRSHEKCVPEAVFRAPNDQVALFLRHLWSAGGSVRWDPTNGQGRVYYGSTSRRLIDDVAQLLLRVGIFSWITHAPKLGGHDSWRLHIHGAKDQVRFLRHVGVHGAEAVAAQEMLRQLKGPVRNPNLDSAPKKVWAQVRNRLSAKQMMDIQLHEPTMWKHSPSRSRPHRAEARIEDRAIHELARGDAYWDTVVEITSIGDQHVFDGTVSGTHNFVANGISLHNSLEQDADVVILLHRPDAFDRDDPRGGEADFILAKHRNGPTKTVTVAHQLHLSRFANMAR

[8] = tested on: Streptococcus sp. 'group A'; experiment: growth inhibition of control SK(-) GAS strain, dose response, counter-screen for streptokinase expression inhibitor project, luminescence, kanamycin, BacTiterGlo, confirmation (AID 1900); assay type: functional, organism-based
Protein RecA = molecular target: T5, Protein RecA (Mycobacterium tuberculosis, UniProt P9WHJ3); experiment: Fluorescence Cell-Free Homogeneous Dose Retest to Identify Inhibitors of RecA-Intein Splicing Activity. [Related pubchem assays (depositor defined):AID2097, AID2223, AID489010, AID492950]; assay type: functional
T5 sequence (P9WHJ3 whole entry): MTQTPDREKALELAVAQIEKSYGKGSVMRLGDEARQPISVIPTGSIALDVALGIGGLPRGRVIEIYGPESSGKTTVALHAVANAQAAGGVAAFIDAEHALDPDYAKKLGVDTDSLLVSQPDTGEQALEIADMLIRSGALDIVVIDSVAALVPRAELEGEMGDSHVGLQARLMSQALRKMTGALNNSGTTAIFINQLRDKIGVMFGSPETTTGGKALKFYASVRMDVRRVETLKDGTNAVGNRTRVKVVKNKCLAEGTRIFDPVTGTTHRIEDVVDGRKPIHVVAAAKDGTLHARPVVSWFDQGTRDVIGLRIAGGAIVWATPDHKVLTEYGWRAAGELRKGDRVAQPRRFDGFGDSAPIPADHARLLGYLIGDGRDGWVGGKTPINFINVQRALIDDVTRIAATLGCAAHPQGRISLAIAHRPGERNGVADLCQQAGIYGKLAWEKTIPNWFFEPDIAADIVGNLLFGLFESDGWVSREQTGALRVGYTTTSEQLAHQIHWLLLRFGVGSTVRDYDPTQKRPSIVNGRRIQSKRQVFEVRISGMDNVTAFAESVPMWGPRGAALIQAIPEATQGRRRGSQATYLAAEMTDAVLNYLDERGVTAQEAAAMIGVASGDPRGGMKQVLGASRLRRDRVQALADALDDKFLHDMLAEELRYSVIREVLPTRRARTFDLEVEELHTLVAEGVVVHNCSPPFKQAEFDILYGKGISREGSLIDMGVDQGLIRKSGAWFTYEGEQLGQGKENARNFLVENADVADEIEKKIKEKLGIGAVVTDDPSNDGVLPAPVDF

[9] = molecular target: Induced myeloid leukemia cell differentiation protein Mcl-1 (Homo sapiens, UniProt Q07820); assay type: functional
Chain of Induced myeloid leukemia cell differentiation protein Mcl-1 (Q07820 whole entry): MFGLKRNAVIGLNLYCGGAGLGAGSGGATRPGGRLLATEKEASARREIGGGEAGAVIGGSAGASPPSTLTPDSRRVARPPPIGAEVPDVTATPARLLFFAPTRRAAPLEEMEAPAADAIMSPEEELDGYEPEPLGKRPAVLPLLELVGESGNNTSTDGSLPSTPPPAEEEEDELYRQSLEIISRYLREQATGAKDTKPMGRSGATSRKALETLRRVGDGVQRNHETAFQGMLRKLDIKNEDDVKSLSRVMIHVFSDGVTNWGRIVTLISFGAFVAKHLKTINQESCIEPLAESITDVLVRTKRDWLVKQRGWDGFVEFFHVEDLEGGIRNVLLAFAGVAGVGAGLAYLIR

Streptokinase A = molecular target: T6, Streptokinase A (Streptococcus pyogenes serotype M1, UniProt P10520); experiment: S. pyogenes streptokinase expression inhibitors, potency, dose response, plasminogen activation absorbance, OD405 (AID 1914); assay type: functional, Streptococcus pyogenes M1 GAS;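 also: secreted streptokinase activity via plasminogen activation per viability signal from cell pellet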
T6 sequence (P10520 whole entry): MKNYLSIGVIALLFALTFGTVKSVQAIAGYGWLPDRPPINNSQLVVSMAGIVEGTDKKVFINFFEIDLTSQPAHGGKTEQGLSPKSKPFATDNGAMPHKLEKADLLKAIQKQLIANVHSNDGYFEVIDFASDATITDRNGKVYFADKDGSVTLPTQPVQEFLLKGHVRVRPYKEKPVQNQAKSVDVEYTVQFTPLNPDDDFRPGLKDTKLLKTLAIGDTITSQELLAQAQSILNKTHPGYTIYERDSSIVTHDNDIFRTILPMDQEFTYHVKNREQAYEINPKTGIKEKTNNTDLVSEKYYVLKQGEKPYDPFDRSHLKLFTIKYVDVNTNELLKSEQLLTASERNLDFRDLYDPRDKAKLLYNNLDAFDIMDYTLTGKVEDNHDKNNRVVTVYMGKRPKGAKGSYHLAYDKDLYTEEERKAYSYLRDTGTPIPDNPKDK

Streptococcus = experiment: Group A Streptococcus viability loss, dose response, counter-screen for streptokinase expression inhibitor project, luminescence, BacTiterGlo (AID 1915); assay type: functional, organism-based;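 also: potency for reduction of bacterial viability or growth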
[10] = molecular target: Luciferin 4-monooxygenase (Photinus pyralis, UniProt P08659); experiment: firefly luciferase enzyme inhibitors, dose response, biochemical, luminescence (AID 1891)
Chain of Luciferin 4-monooxygenase (P08659 whole entry): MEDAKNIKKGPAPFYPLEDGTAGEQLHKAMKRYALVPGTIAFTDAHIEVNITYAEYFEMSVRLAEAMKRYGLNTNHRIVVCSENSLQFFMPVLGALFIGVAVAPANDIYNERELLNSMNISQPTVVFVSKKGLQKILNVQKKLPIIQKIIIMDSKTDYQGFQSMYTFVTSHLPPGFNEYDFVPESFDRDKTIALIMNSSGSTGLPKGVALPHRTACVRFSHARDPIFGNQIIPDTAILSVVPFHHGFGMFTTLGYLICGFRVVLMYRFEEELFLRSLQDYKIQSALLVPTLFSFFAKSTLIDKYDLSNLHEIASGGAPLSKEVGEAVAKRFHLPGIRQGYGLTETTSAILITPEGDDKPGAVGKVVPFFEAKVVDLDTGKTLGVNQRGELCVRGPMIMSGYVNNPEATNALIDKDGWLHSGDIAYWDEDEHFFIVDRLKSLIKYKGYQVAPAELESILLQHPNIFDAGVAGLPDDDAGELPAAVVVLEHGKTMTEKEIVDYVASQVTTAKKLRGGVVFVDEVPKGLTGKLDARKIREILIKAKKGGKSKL

[11] = Luminescence Cell-Based Dose Confirmation HTS to Identify Inhibitors of Platelet Dense Granule Release. [Related pubchem assays: 1663 (Primary HTS), 1678 (Summary of Project)]; assay type: functional

COc1ccccc1CN(Cc1nc(O)c2ccccc2n1)S(=O)(=O)c1ccc2ccccc2c1
EC50 [1]: 16.7 µM (active) | CC50 (Vero): > 25 µM (active) | EC50 [2]: 17.4 µM (active) | IC50 (H9c2): 20.5 µM (active)

COc1ccc(OC)c(CCNC(=O)Cn2sc3nc(C)cc(C)c3c2=O)c1
EC50 [1]: 18.3 µM (active) | EC50 [2]: 16.7 µM (active) | IC50 [3]: 5.66 µM (active) | IC50 (Large T antigen): 22.1 µM (active) | IC50 [4]: > 50 µM (inactive)

CC(C)CC(C(=O)NC1CCCC1)N(Cc1ccc2c(c1)OCO2)C(=O)c1snc(C(N)=O)c1N (centres undefined)
IC50 [5]: > 20 µM (inactive)

Cn1c(=O)c2c(nc(CN3CCc4ccccc4C3)n2Cc2ccccc2F)n(C)c1=O
EC50 [6]: 5.31 µM (active)

O=C(CC(=O)c1c(F)cccc1Cl)c1ccccc1O
EC50 [6]: 10.6 µM (active)

CCOC(=O)C1=C(O)c2ccccc2C(=O)/C1=C\c1ccc(CC)cc1
AC50 [7]: 4.44 µM (active) | EC50 [8]: 13 µM (active) | EC50 (Protein RecA): 8.86 µM (active) | IC50 [9]: 7.19 µM (active) | EC50 (Streptokinase A): > 150 µM (not active) | EC50 (Streptococcus): 38.1 µM (active)

NC(=O)c1nsc(C(=O)N(c2cccc(F)c2)C(C(=O)NC2CCCC2)c2ccc(O)cc2)c1N (centres undefined)
IC50 [5]: > 20 µM (inactive)

CCN1C(=O)N/C(=C/c2ccc(C)o2)C1=O
IC50 [3]: 3.29 µM (active) | IC50 [4]: 22.6 µM (active)

COc1ccc(NC(=O)c2cc3ccc4c5ccccc5[nH]c4c3cc2O)cc1
IC50 [3]: 9.55 µM (active) | IC50 [4]: > 50 µM (inactive)

COc1cc(OC)cc(C(=O)NC(=S)NNC(=O)[C@H]2C[C@@H]2c2ccccc2)c1
CC50 (Vero): 23.8 µM (active) | EC50 [6]: 2.99 µM (active)

COc1cc(OC)cc(C(=O)NCCCN2CCN(CCCNC(=O)c3cc(OC)cc(OC)c3)CC2)c1
EC50 [10]: > 112 µM (not active) | EC50 [11]: > 112 µM (not active) | EC50 [6]: 0.188 µM (active)

O=C(Cc1cccc(F)c1F)NC1CCCN(Cc2ccc(Cl)cc2)C1 (centres undefined)
EC50 [6]: 0.944 µM (active)

N=C(NC(=O)c1ccccc1)N1CCN(C(c2ccccc2)c2ccccc2)CC1
CC50 (Vero): > 25 µM (active)

O=C(CCS(=O)(=O)c1ccccc1)Nc1ccc(-c2nc3ccccc3s2)cc1
IC50 [3]: 12.5 µM (active) | IC50 [4]: > 50 µM (inactive)

N#Cc1c(O)nsc1Nc1ccccc1Cl
IC50 [3]: 4.76 µM (active) | IC50 [4]: > 50 µM (inactive)

CCN1C(=O)CC(c2ccccc2)N(C2CCCC2)c2nc(Nc3ccc(C(=O)NC4CCN(C)CC4)cc3OC)ncc21 (centres undefined)
IC50 [5]: > 20 µM (inactive)

CCCc1n[nH]c2c1C(C1CC=CCC1)C(C#N)=C(N)O2 (centres undefined)
EC50 [1]: 33.2 µM (active) | CC50 (Vero): > 25 µM (active) | EC50 [2]: 139 µM (active)

Cc1ccc(NS(=O)(=O)c2ccc(C(=O)N3CC(C)CC(C)C3)cc2)cc1 (centres undefined)
EC50 [6]: 4.22 µM (active)
